Measured values taken from US12421253B2 (Mirati Therapeutics, Inc., priority 2020, dated 2025).

Assays:
[1] = biological target: T1, KRas^G12R (Homo sapiens, UniProt P01116, G12R); experiment: KRas binding assay (TR-FRET displacement of Cy5 labelled tracer)
T1 construct: […]; biotin (biotinylated); purchased Accelegan Inc

[2] = biological target: T2, KRas^G12V (Homo sapiens, UniProt P01116, G12V); experiment: as above
T2 construct: […]; biotin (biotinylated); purchased Accelegan Inc

[3] = biological target: T3, KRas^G12D (Homo sapiens, UniProt P01116, G12D); experiment: as above
T3 construct: […]; biotin (biotinylated); purchased Accelegan Inc

[4] = test system: PSN1 cells, pERK; experiment: Inhibition of KRas phosphorylation of ERK (Cisbio HTRF Advanced pERK assay); type: cell-based; settings: Homo sapiens, PSN1, 3 h, read-out: Inhibition (HTRF IC50 nM) of KRas-mediated Phosphorylation of ERK, PSN1
Experimental: (§1) Inhibition of KRas Phosphorylation of ERK (HTRF) by Exemplary Compounds of Formula (I)
(§2) Cisbio HTRF Advanced pERK Assay Catalog #64AERPEH
(§3) • Day 1: Seed 6,000 cells/well −25 μl/well in 384-well white solid bottom plate; RPM1_10% FBS. […] To harvest cells from flask using 0.05% Trypsin/EDTA solution. Add 10 mL of media to stop trypsinizing. Pipette the cells into a conical bottom 50 mL centrifuge tube and centrifuge 5 min×1000 rpm. • 2. Re-suspend the cell pellet in media, take a cell count, and then adjust the cell density using fresh media. • 3. Seed 6,000 cells into cell culture plate with […]. The • 4. Incubate cell plate overnight in a 37° C., 5% CO2 incubator. Compound Titrations • 1. Use Tecan to complete the compound addition. Compounds start from 10 uM top, 3-fold dilution, and 10 doses. The final DMSO concentration is 0.8%. Dispensed 0.2 uM Trametinib as Min control. • 2. Incubate cell plate for 3 hrs in the incubator. Detection with Cisbio pERK HTRF Kit • 1. Dilute 1 volume of 4× lysis buffer with 3 volumes of deionized water. Then, add 100× the blocking reagent. Keep lysis buffer on the ice. • 2. At the end of the compound treatment, flick-off the media. • 3. Add 35 μL of lysis buffer per well using a Multidrop Combi. Then place on a plate agitator shaking at 300 rpm at 4° C. for 40 mins. • 4. Make up the HTRF antibody buffer. For each assay plate, mix 50 μL of d2-conjugate antibody with 950 μL of detection buffer. Similarly, mix 50 μL of Cryptate antibody with 950 μL of detection buffer. Then mix the two diluted antibodies together. • 5. Dispense 3.4 μL the antibody buffer to wells of an empty assay plate. Seal the plate and centrifuge plate 30 sec×1000 rpm. • 6. At the end of the 4° C. lysis, centrifuge the lysate plates 3 mins×1500 rpm. • 7. Use the Bravo to transfer 13.6 μL of lysate from cell culture plate to assay plate. Then incubate assay plate for 2 hrs at room temperature. • 8. At the end of incubation, read plate on the Envision after centrifuging plate 30 sec×1000 rpm.

[5] = test system: H727 cells, pERK; experiment: as above; type: cell-based; settings: Homo sapiens, NCI-H727, 3 h, read-out: Inhibition (HTRF IC50 nM) of KRas-mediated Phosphorylation of ERK, H727
Experimental: as §1, §2, §3

[6] = test system: MKN1 cells, pERK; experiment: as above; type: cell-based; settings: Homo sapiens, MKN-1, 3 h, read-out: Inhibition (HTRF IC50 nM) of KRas-mediated Phosphorylation of ERK, MKN1
Experimental: as §1, §2, §3

[7] = test system: ASPC1 cells, pERK; experiment: as above; type: cell-based; settings: Homo sapiens, ASPC1, 3 h, AsPC-1 cells, read-out: Inhibition (HTRF IC50 nM) of KRas-mediated Phosphorylation of ERK, AsPC-1
Experimental: as §1, §2, §3

T1 sequence (P01116 1-169 isoform P01116-2 G12R): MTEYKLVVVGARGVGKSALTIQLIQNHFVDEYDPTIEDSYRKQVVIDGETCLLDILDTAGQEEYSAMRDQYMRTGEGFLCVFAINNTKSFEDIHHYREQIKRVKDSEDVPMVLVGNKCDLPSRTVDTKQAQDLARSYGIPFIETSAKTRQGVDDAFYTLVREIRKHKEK
T3 sequence (P01116 1-169 isoform P01116-2 G12D): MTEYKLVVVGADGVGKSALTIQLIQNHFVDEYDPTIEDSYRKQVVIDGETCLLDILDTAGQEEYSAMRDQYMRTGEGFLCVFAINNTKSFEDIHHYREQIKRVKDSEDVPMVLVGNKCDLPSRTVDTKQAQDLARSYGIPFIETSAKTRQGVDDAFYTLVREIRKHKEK
T2 sequence (P01116 1-169 isoform P01116-2 G12V): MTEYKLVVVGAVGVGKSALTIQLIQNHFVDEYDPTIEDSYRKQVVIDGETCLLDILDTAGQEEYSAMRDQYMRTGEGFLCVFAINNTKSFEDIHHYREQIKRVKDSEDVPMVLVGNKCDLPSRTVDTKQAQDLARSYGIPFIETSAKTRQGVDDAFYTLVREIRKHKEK

| Structure (SMILES) | IC50 [1] | IC50 [2] | IC50 [3] | IC50 [4] | IC50 [5] | IC50 [6] | IC50 [7] |
| --- | --- | --- | --- | --- | --- | --- | --- |
| CCc1c(F)ccc2cc(O)cc(N3CCc4c(nc(OC[C@@]56CCCN5C[C@H](F)C6)nc4N4CCCn5nncc5C4)C3)c12 [Example 178, 4-(4-(7,8-dihydro-4H-[1,2,3]triazolo[1,5-a][1,4]diazepin-5(6H)-yl)-2-(((2R,7aS)-2-fluorotetrahydro-1H-pyrrolizin-7a(5H)-yl)methoxy)-5,8-dihydropyrido[3,4-d]pyrimidin-7(6H)-yl)-5-ethyl-6-fluoronaphthalen-2-ol] | ≤ 2 nM | ≤ 2 nM | ≤ 2 nM | 7620 nM | 68 nM | 20 nM | 17 nM |
| CCc1c(F)ccc2cc(O)cc(N3CCc4c(nc(OC[C@@]56CCCN5C[C@H](F)C6)nc4N4CC5CC(O)CC(C5)C4)C3)c12 (stereo partly drawn) [Example 179, 3-(7-(8-ethyl-7-fluoro-3-hydroxynaphthalen-1-yl)-2-(((2R,7aS)-2-fluorohexahydro-1H-pyrrolizin-7a-yl)methoxy)-5,6,7,8-tetrahydropyrido[3,4-d]pyrimidin-4-yl)-3-azabicyclo[3.3.1]nonan-7-ol] | 80 nM | 101 nM | 207 nM | ≥ 10000 nM | 4790 nM | 1210 nM | 5170 nM |
| CCc1c(F)ccc2cc(O)cc(N3CCc4c(nc(OC[C@@]56CCCN5C[C@H](F)C6)nc4N4C[C@H]5C[C@H](O)C[C@H]5C4)C3)c12 [Example 183, (3aR,5R,6aS)-2-(7-(8-ethyl-7-fluoro-3-hydroxynaphthalen-1-yl)-2-(((2R,7aS)-2-fluorohexahydro-1H-pyrrolizin-7a-yl)methoxy)-5,6,7,8-tetrahydropyrido[3,4-d]pyrimidin-4-yl)octahydrocyclopenta[c]pyrrol-5-ol] | 23 nM | 54 nM | 150 nM | ≥ 10000 nM | 2920 nM | 498 nM | 1540 nM |
| CCc1c(F)ccc2cc(O)cc(N3CCc4c(nc(OC[C@@]56CCCN5C[C@H](F)C6)nc4N4C[C@H]5CC[C@H](O)[C@H]5C4)C3)c12 [Example 182, (3aR,4S,6aS)-2-(7-(8-ethyl-7-fluoro-3-hydroxynaphthalen-1-yl)-2-(((2R,7aS)-2-fluorohexahydro-1H-pyrrolizin-7a-yl)methoxy)-5,6,7,8-tetrahydropyrido[3,4-d]pyrimidin-4-yl)octahydrocyclopenta[c]pyrrol-4-ol] | 118 nM | 75 nM | 209 nM | ≥ 10000 nM | 4660 nM | 1300 nM | 3920 nM |
| Oc1cc(N2CCc3c(nc(OC[C@@]45CCCN4C[C@H](F)C5)nc3N3CCCC4(CC(O)C4)C3)C2)c2c(Cl)c(F)ccc2c1 (stereo partly drawn) [Example 71, 6-(7-(8-chloro-7-fluoro-3-hydroxynaphthalen-1-yl)-2-(((2R,7aS)-2-fluorohexahydro-1H-pyrrolizin-7a-yl)methoxy)-5,6,7,8-tetrahydropyrido[3,4-d]pyrimidin-4-yl)-6-azaspiro[3.5]nonan-2-ol] | ≤ 2 nM | ≤ 2 nM | 4 nM | 6040 nM | 848 nM | 211 nM | 1170 nM |
| CCc1c(F)ccc2cc(O)cc(N3CCc4c(nc(OC[C@@]56CCCN5C[C@H](F)C6)nc4N4C[C@H]5C[C@@H](O)C[C@H]5C4)C3)c12 [Example 184, (3aR,5S,6aS)-2-(7-(8-ethyl-7-fluoro-3-hydroxynaphthalen-1-yl)-2-(((2R,7aS)-2-fluorohexahydro-1H-pyrrolizin-7a-yl)methoxy)-5,6,7,8-tetrahydropyrido[3,4-d]pyrimidin-4-yl)octahydrocyclopenta[c]pyrrol-5-ol] | 11 nM | 12 nM | 23 nM | ≥ 10000 nM | 796 nM | 652 nM | 770 nM |
| CCc1c(F)ccc2cc(O)cc(N3CCc4c(nc(OC[C@@]56CCCN5C[C@H](F)C6)nc4N4CC5CC(O)C5C4)C3)c12 (stereo partly drawn) [Example 177, 3-(7-(8-ethyl-7-fluoro-3-hydroxynaphthalen-1-yl)-2-(((2R,7aS)-2-fluorohexahydro-1H-pyrrolizin-7a-yl)methoxy)-5,6,7,8-tetrahydropyrido[3,4-d]pyrimidin-4-yl)-3-azabicyclo[3.2.0]heptan-6-ol] | 15 nM | 9 nM | 19 nM | ≥ 10000 nM | 1380 nM | 479 nM | 1310 nM |
| OCC1COCCN(c2nc(OC[C@@]34CCCN3C[C@H](F)C4)nc3c2CCN(c2cc(O)cc4ccc(F)c(Cl)c24)C3)C1 (stereo partly drawn) [Example 73, 5-chloro-6-fluoro-4-(2-(((2R,7aS)-2-fluorohexahydro-1H-pyrrolizin-7a-yl)methoxy)-4-(6-(hydroxymethyl)-1,4-oxazepan-4-yl)-5,6-dihydropyrido[3,4-d]pyrimidin-7(8H)-yl)naphthalen-2-ol] | 3 nM | 3 nM | 5 nM | 6380 nM | 871 nM | 85 nM | 661 nM |

The remaining lines, values ahead:

| IC50 [1] | IC50 [2] | IC50 [3] | IC50 [4] | IC50 [5] | IC50 [6] | IC50 [7] | Structure (SMILES) |
| --- | --- | --- | --- | --- | --- | --- | --- |
| 20 nM | 8 nM | 17 nM | ≥ 10000 nM | 373 nM | 1520 nM | 1110 nM | CCc1c(F)ccc2cc(O)cc(N3CCc4c(nc(OC[C@@]56CCCN5C[C@H](F)C6)nc4N4CCCc5nn(C(=O)NC(C)C)cc5C4)C3)c12 [Example 195, 5-(7-(8-ethyl-7-fluoro-3-hydroxynaphthalen-1-yl)-2-(((2R,7aS)-2-fluorohexahydro-1H-pyrrolizin-7a-yl)methoxy)-5,6,7,8-tetrahydropyrido[3,4-d]pyrimidin-4-yl)-N-isopropyl-5,6,7,8-tetrahydropyrazolo[4,3-c]azepine-2(4H)-carboxamide] |
| 7 nM | ≤ 2 nM | ≤ 2 nM | 3900 nM | 1350 nM | 101 nM | 543 nM | CCc1c(F)ccc2cc(O)cc(N3CCc4c(nc(OCC5(CN(C)C)CC5)nc4N4CCCC5(CNS(=O)(=O)N5)C4)C3)c12 (stereo not drawn) [Example 202, 7-(2-((1-((dimethylamino)methyl)cyclopropyl)methoxy)-7-(8-ethyl-7-fluoro-3-hydroxynaphthalen-1-yl)-5,6,7,8-tetrahydropyrido[3,4-d]pyrimidin-4-yl)-2-thia-1,3,7-triazaspiro[4.5]decane 2,2-dioxide] |
| 26 nM | 15 nM | 12 nM | ≥ 10000 nM | 4380 nM | 929 nM | 2360 nM | O=C1NCC12CCCN(c1nc(OC[C@@]34CCCN3C[C@H](F)C4)nc3c1CCN(c1cc(O)cc4ccc(F)c(Cl)c14)C3)C2 (stereo partly drawn) [Example 231, 6-(7-(8-chloro-7-fluoro-3-hydroxynaphthalen-1-yl)-2-(((2R,7aS)-2-fluorotetrahydro-1H-pyrrolizin-7a(5H)-yl)methoxy)-5,6,7,8-tetrahydropyrido[3,4-d]pyrimidin-4-yl)-2,6-diazaspiro[3.5]nonan-1-one] |
| ≤ 2 nM | ≤ 2 nM | ≤ 2 nM | ≥ 10000 nM | 651 nM | 62 nM | 976 nM | Oc1cc(N2CCc3c(nc(OC[C@@]45CCCN4C[C@H](F)C5)nc3N3CCCC4(CC(O)C4)C3)C2)c2c(Br)c(F)ccc2c1 (stereo partly drawn) [Example 224, 6-(7-(8-bromo-7-fluoro-3-hydroxynaphthalen-1-yl)-2-(((2R,7aS)-2-fluorohexahydro-1H-pyrrolizin-7a-yl)methoxy)-5,6,7,8-tetrahydropyrido[3,4-d]pyrimidin-4-yl)-6-azaspiro[3.5]nonan-2-ol] |
